From patent US9573956B2, “Compounds as dual inhibitors of phosphodiesterases and histone deacetylases” (FUNDACIÓN PARA LA INVESTIGACIÓN MÉDICA APLICADA, priority 2013, dated 2017)
Read-outs that look alike come from different tables or passages of the source.

Assays:
Type in all cases: biochemical
HDAC6 = target: T1, HDAC6 (Homo sapiens, UniProt Q9UBN7); assay: HDAC enzyme activity assay (fluorogenic substrate), HDAC6
T1 construct: BC069243; Cat. #50006) is full-length with N-terminal GST tag; GST (N); purchased BPS Biosciences 50006; host or cells: baculovirus infected Sf9 cells
T1 sequence (Q9UBN7 1-1215): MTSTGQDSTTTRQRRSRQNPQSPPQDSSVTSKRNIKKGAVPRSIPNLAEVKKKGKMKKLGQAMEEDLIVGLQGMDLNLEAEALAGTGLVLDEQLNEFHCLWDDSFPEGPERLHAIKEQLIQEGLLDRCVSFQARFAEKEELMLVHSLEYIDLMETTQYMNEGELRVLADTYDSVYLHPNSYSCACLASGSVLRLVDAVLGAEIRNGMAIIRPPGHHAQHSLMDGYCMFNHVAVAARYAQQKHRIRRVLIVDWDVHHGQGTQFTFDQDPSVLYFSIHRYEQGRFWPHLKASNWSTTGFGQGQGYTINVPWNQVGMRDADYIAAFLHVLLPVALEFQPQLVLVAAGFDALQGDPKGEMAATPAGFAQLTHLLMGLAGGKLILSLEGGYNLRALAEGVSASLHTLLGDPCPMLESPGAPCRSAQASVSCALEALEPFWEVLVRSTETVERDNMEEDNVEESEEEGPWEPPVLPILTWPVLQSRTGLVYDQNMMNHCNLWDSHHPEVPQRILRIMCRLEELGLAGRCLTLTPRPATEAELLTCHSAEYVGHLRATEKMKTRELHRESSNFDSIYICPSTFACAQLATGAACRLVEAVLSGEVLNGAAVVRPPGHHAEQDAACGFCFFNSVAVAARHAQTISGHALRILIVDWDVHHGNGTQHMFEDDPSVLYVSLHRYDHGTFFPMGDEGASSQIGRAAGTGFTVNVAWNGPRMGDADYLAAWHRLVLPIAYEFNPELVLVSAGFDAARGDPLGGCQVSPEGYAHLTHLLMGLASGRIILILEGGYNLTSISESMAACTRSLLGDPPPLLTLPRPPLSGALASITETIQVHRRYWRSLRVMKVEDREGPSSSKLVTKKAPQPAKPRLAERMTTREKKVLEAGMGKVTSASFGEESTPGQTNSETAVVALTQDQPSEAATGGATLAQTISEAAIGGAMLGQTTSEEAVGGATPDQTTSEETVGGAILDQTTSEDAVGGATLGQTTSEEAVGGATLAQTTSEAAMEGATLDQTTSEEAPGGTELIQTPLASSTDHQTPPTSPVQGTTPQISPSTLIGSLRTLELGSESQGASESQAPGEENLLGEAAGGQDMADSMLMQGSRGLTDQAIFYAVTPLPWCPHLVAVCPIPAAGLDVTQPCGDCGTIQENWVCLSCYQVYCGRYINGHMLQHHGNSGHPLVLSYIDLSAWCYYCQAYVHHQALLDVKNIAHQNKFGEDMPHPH

PDE5A = target: T2, PDE5A (Homo sapiens, UniProt O76074); assay: PDE enzyme activity assay (HTRF cGMP), PDE5A
T2 construct: they are full-length with N-terminal GST tag; GST (N); purchased BPS Biosciences 60050; host or cells: baculovirus infected Sf9 cells

HDAC1 = HDAC1 (Homo sapiens, UniProt Q13547); assay: HDAC enzyme activity assay (fluorogenic substrate), HDAC1
HDAC2 = target: T3, HDAC2 (Homo sapiens, UniProt Q92769); assay: HDAC enzyme activity assay (fluorogenic substrate), HDAC2
T3 construct: NM_001527; Cat. #50002) is full-length with C-terminal his tag; His (C); purchased BPS Biosciences 50002; host or cells: baculovirus infected Sf9 cells

[1] = recombinant enzyme, read-out: HDAC6 inhibition (IC50)
[2] = recombinant enzyme, read-out: PDE5A1 inhibition (IC50)
[3] = recombinant enzyme, read-out: HDAC1 inhibition (IC50)
[4] = recombinant enzyme, read-out: HDAC2 inhibition (IC50)

Chain of HDAC1 (Q13547 whole entry): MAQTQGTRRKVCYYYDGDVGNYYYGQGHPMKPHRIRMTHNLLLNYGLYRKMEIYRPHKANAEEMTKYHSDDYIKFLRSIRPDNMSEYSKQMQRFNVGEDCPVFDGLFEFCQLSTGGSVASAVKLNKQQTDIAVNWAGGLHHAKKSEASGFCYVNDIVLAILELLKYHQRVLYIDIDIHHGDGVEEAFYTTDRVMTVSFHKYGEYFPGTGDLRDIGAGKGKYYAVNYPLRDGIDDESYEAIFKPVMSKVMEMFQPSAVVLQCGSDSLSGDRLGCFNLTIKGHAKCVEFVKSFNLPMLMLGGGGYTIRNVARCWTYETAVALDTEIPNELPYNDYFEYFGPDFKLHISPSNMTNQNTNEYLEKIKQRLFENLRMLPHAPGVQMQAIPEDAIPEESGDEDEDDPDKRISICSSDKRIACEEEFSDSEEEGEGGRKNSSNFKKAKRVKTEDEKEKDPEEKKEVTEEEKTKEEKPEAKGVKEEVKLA
T3 sequence (Q92769 whole entry): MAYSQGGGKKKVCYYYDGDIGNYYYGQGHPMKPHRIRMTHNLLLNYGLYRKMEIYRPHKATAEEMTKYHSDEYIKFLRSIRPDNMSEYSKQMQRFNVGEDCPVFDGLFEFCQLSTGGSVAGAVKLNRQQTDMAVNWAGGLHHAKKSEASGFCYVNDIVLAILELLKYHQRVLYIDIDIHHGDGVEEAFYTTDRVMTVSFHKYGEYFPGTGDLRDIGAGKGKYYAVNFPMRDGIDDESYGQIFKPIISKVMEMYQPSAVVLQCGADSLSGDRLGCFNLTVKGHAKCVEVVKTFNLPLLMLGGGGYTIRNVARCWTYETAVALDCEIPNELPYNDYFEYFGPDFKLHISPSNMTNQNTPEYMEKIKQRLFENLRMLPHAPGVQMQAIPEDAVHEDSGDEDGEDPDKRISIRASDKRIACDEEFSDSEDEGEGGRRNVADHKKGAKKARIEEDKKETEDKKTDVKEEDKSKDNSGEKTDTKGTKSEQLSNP

Compound	IC50 (HDAC6; [1])	IC50 (PDE5A; [2])	IC50 (HDAC1; [3])	IC50 (HDAC2; [4])	IC50 (HDAC6; comparative examples, inactive, read-out: HDAC6 IC50)	IC50 (PDE5A; comparative example, read-out: PDE5A1 IC50)	IC50 (HDAC1; comparative examples, inactive, read-out: HDAC1 IC50)	IC50 (HDAC2; comparative examples, inactive, read-out: HDAC2 IC50)
CCCc1nn(C)c2c(=O)[nH]c(-c3cc(Cc4ccc(C(=O)NO)cc4F)ccc3OCC)nc12 [Example 1-68]	0.01 to 1 µM	0.01 to 1 µM	1 to 10 µM	> 10 µM	–	–	–	–
CCCc1nn(C)c2c(=O)[nH]c(-c3cc(NCCC(=O)NO)ccc3OCC)nc12 [Example 1-33, 3-[4-ethoxy-3-(1-methyl-7-oxo-3-propyl-6H-pyrazolo[4,3-d]pyrimidin-5-yl)anilino]propanehydroxamic acid]	> 10 µM	0.01 to 1 µM	1 to 10 µM	> 10 µM	–	–	–	–
CCCc1nn(C)c2c(=O)[nH]c(-c3cc(NCC4CCN(c5ncc(C(=O)NO)cn5)CC4)ccc3OCC)nc12 [Example 1-23]	0.01 to 1 µM	0.01 to 1 µM	0.01 to 1 µM	0.01 to 1 µM	–	–	–	–
CCCc1nn(C)c2c(=O)[nH]c(-c3cc(CC4CCN(c5ccc(C(=O)NO)cn5)CC4)ccc3OCC)nc12 [Example 1-39]	0.01 to 1 µM	0.01 to 1 µM	1 to 10 µM	1 to 10 µM	–	–	–	–
CCCc1nn(C)c2c(=O)[nH]c(-c3cc(-c4ccc(CC(=O)NO)cc4)ccc3OCC)nc12 [Example 1-34]	0.01 to 1 µM	0.01 to 1 µM	> 10 µM	> 10 µM	–	–	–	–
CCCc1nn(C)c2c(=O)[nH]c(-c3cc(CC4CC(C(=O)NO)C4)ccc3OCC)nc12 (centres unmarked) [Example 1-63, 3-[[4-ethoxy-3-(1-methyl-7-oxo-3-propyl-6H-pyrazolo[4,3-d]pyrimidin-5 yl)phenyl]methyl]cyclobutanecarbohydroxamic acid]	0.01 to 1 µM	0.01 to 1 µM	0.01 to 1 µM	1 to 10 µM	–	–	–	–
CCCc1nn(C)c2c(=O)[nH]c(-c3cc(C4=CCC(C(=O)NO)CC4)ccc3OCC)nc12 (centres unmarked) [Example 1-38, 4-[4-ethoxy-3-(1-methyl-7-oxo-3-propyl-6H-pyrazolo[4,3-d]pyrimidin-5-yl)phenyl]cyclohex-3-ene-1-carbohydroxamic acid]	0.01 to 1 µM	0.01 to 1 µM	1 to 10 µM	> 10 µM	–	–	–	–
CCCc1nn(C)c2c(=O)[nH]c(-c3cc(CC4CCC(C(=O)NO)CC4)ccc3OCC)nc12 (centres unmarked) [Example 1-28, 4-[[4-ethoxy-3-(1-methyl-7-oxo-3-propyl-6H-pyrazolo[4,3-d]pyrimidin-5-yl)phenyl]methyl]cyclohexanecarbohydroxamic acid]	0.01 to 1 µM	0.01 to 1 µM	0.01 to 1 µM	> 10 µM	–	–	–	–
CCCc1nn(C)c2c(=O)[nH]c(-c3cc(CC4CC(C(=O)NO)C4)ccc3OCC)nc12 (centres unmarked) [Example 1-62, 3-[[4-ethoxy-3-(1-methyl-7-oxo-3-propyl-6H-pyrazolo[4,3-d]pyrimidin-5 yl)phenyl]methyl]cyclobutanecarbohydroxamic acid]	0.01 to 1 µM	0.01 to 1 µM	0.01 to 1 µM	0.01 to 1 µM	–	–	–	–
CCCc1nn(C)c2c(=O)[nH]c(-c3cc(Cc4ccc(C(=O)NO)c(F)c4)ccc3OCC)nc12 [Example 1-66]	0.01 to 1 µM	0.01 to 1 µM	1 to 10 µM	> 10 µM	–	–	–	–
CCCc1nc(C)c2c(=O)[nH]c(-c3cc(CC4CC(C(=O)N(C)OC)C4)ccc3OCC)nn12 (centres unmarked) [Comparative Example 2-02, 3-[[4-ethoxy-3-(5-methyl-4-oxo-7-propyl-3H-imidazo[5,1-f][1,2,4]triazin-2-yl)phenyl]methyl]-N-methoxy-N-methylcyclobutanecarboxamide, reference compound]	–	–	–	–	> 20 µM	< 0.01 µM	> 20 µM	> 20 µM
CCCc1nn(C)c2c(=O)[nH]c(-c3cc(CC4CC4C(=O)NO)ccc3OCC)nc12 (centres unmarked) [Example 1-86, 2-[[4-ethoxy-3-(1-methyl-7-oxo-3-propyl-6H-pyrazolo[4,3-d]pyrimidin-5-yl)phenyl]methyl]cyclopropanecarbohydroxamic acid]	1 to 10 µM	0.01 to 1 µM	1 to 10 µM	> 10 µM	–	–	–	–
CCCc1nn(C)c2c(=O)[nH]c(-c3cc(Nc4ccc(C(=O)NO)cc4)ccc3OCC)nc12 [Example 1-21, 4-[4-ethoxy-3-(1-methyl-7-oxo-3-propyl-6H-pyrazolo[4,3-d]pyrimidin-5-yl)anilino]benzenecarbohydroxamic acid]	0.01 to 1 µM	< 0.01 µM	0.01 to 1 µM	> 10 µM	–	–	–	–
CCCc1nc(C)c2c(=O)[nH]c(-c3cc(Cc4ccc(/C=C/C(=O)NO)cc4)ccc3OCC)nn12 [Example 2-08]	0.01 to 1 µM	< 0.01 µM	1 to 10 µM	1 to 10 µM	–	–	–	–
CCCc1nn(C)c2c(=O)[nH]c(-c3cc(Cc4ccc(/C=C/C(=O)NO)cc4)ccc3OCC)nc12 [Example 1-59]	1 to 10 µM	0.01 to 1 µM	1 to 10 µM	> 10 µM	–	–	–	–
CCCc1nn(C)c2c(=O)[nH]c(-c3cc(N4CCC5(CCN(c6ncc(C(=O)NO)cn6)CC5)C4)ccc3OCC)nc12 [Example 1-69, 2-[2-[4-ethoxy-3-(1-methyl-7-oxo-3-propyl-6H-pyrazolo[4,3-d]pyrimidin-5-yl)phenyl]-2,8-diazaspiro[4.5]decan-8-yl]pyrimidine-5-carbohydroxamic acid]	1 to 10 µM	0.01 to 1 µM	0.01 to 1 µM	1 to 10 µM	–	–	–	–
CCCc1nn(C)c2c(=O)[nH]c(-c3cc(CC4CCN(C(=O)NO)CC4)ccc3OCC)nc12 [Example 1-49, 4-[[4-ethoxy-3-(1-methyl-7-oxo-3-propyl-6H-pyrazolo[4,3-d]pyrimidin-5-yl)phenyl]methyl]piperidine-1-carbohydroxamic acid]	1 to 10 µM	0.01 to 1 µM	> 10 µM	> 10 µM	–	–	–	–
CCCc1nn(C)c2c(=O)[nH]c(-c3cc(N4CCC5(CC5C(=O)NO)C4)ccc3OCC)nc12 (centres unmarked) [Example 1-67]	> 10 µM	0.01 to 1 µM	> 10 µM	> 10 µM	–	–	–	–
CCCc1nn(C)c2c(=O)[nH]c(-c3cc(C4CC(C(=O)NO)C4)ccc3OCC)nc12 (centres unmarked) [Example 1-85, 3-[4-ethoxy-3-(1-methyl-7-oxo-3-propyl-6H-pyrazolo[4,3-d]pyrimidin-5-yl)phenyl]cyclobutanecarbohydroxamic acid]	0.01 to 1 µM	0.01 to 1 µM	1 to 10 µM	1 to 10 µM	–	–	–	–
CCCc1nn(C)c2c(=O)[nH]c(-c3cc(CCC(=O)NO)ccc3OCC)nc12 [Example 1-31, 3-[4-ethoxy-3-(1-methyl-7-oxo-3-propyl-6H-pyrazolo[4,3-d]pyrimidin-5-yl)phenyl]propanehydroxamic acid]	1 to 10 µM	0.01 to 1 µM	1 to 10 µM	> 10 µM	–	–	–	–
CCCc1nn(C)c2c(=O)[nH]c(-c3cc(C4CC(C(=O)NO)C4)ccc3OCC)nc12 (centres unmarked) [Example 1-84, 3-[4-ethoxy-3-(1-methyl-7-oxo-3-propyl-6H-pyrazolo[4,3-d]pyrimidin-5-yl)phenyl]cyclobutanecarbohydroxamic acid]	0.01 to 1 µM	0.01 to 1 µM	0.01 to 1 µM	1 to 10 µM	–	–	–	–
CCCc1nn(C)c2c(=O)[nH]c(-c3cc(N4CCCC5(CCC(C(=O)NO)CC5)C4)ccc3OCC)nc12 (centres unmarked) [Example 1-65]	> 10 µM	0.01 to 1 µM	1 to 10 µM	> 10 µM	–	–	–	–
CCCc1nn(C)c2c(=O)[nH]c(-c3cc(OCc4ccc(C(=O)NO)cc4)ccc3OCC)nc12 [Example 1-55]	0.01 to 1 µM	0.01 to 1 µM	1 to 10 µM	> 10 µM	–	–	–	–
